#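 GI50 = concentration required for 50% inhibition of growth. TGI: total growth inhibition.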
# Legend:
# Assay in all cases: inhibition of tumour cell growth, NCI panel, 384-well format
# [1] = tested on: A498 renal
# [2] = tested on: A549 NSCLC
# [3] = tested on: ACHN renal
# [4] = tested on: BT-549 breast
# [5] = tested on: CAKI-1 renal
# [6] = tested on: COLO 205 colon
# [7] = tested on: DU-145 prostate
# [8] = tested on: EKVX NSCLC
# [9] = tested on: HCC-2998 colon
# [10] = tested on: HCT-116 colon
# [11] = tested on: HCT-15 colon
# [12] = tested on: HL-60(TB) leukemia
# [13] = tested on: HOP-62 NSCLC
# [14] = tested on: HOP-92 NSCLC
# [15] = tested on: HS 578T breast
# [16] = tested on: HT29 colon
# [17] = tested on: IGROV1 ovarian
# [18] = tested on: KM12 colon
# [19] = tested on: LOX IMVI melanoma
# [20] = tested on: M14 melanoma
# [21] = tested on: MALME-3M melanoma
# [22] = tested on: MCF7 breast
# [23] = tested on: MDA-MB-231 breast
# [24] = tested on: MDA-MB-435 melanoma
# [25] = tested on: MDA-MB-468 breast
# [26] = tested on: MOLT-4 leukemia
# [27] = tested on: NCI-H226 lung
# [28] = tested on: NCI-H23 lung
# [29] = tested on: NCI-H322M lung
# [30] = tested on: NCI-H460 NSCLC
# [31] = tested on: NCI-H522 lung
# [32] = tested on: NCI/ADR-RES ovarian
# [33] = tested on: OVCAR-3 ovarian
# [34] = tested on: OVCAR-4 ovarian
# [35] = tested on: OVCAR-5 ovarian
# [36] = tested on: OVCAR-8 ovarian
# [37] = tested on: PC-3 prostate
# [38] = tested on: RPMI-8226 leukemia
# [39] = tested on: RXF 393 renal
# [40] = tested on: SF-268 CNS
# [41] = tested on: SF-295 CNS
# [42] = tested on: SF-539 CNS
# [43] = tested on: SK-MEL-28 melanoma
# [44] = tested on: SK-MEL-5 melanoma
# [45] = tested on: SK-OV-3 ovarian
# [46] = tested on: SN12C renal
# [47] = tested on: SNB-19 CNS
# [48] = tested on: SNB-75 CNS
# [49] = tested on: SR leukemia
# [50] = tested on: T-47D breast
# [51] = tested on: TK-10 renal
# [52] = tested on: U251 glioblastoma
# [53] = tested on: UACC-257 melanoma
# [54] = tested on: UACC-62 melanoma
smiles,measurement,setting,value
CN(C)Cc1c(C(=O)NCCOc2ccc(C(=O)NO)cc2)oc2ccccc12,GI50,[1],187 nM
same,TGI,[1],658 nM
same,GI50,[2],313 nM
same,TGI,[2],1240 nM
same,GI50,[3],221 nM
same,TGI,[3],578 nM
same,GI50,[4],264 nM
same,TGI,[4],1350 nM
same,GI50,[5],316 nM
same,TGI,[5],1100 nM
same,GI50,[6],158 nM
same,TGI,[6],319 nM
same,GI50,[7],118 nM
same,TGI,[7],320 nM
same,GI50,[8],403 nM
same,TGI,[8],3110 nM
same,GI50,[9],109 nM
same,TGI,[9],362 nM
same,GI50,[10],92.3 nM
same,TGI,[10],479 nM
same,GI50,[11],480 nM
same,TGI,[11],2010 nM
same,GI50,[12],56.9 nM
same,TGI,[12],148 nM
same,GI50,[13],170 nM
same,TGI,[13],690 nM
same,GI50,[14],310 nM
same,TGI,[14],1330 nM
same,GI50,[15],145 nM
same,TGI,[15],385 nM
same,GI50,[16],219 nM
same,TGI,[16],943 nM
same,GI50,[17],111 nM
same,TGI,[17],324 nM
same,GI50,[18],311 nM
same,TGI,[18],1700 nM
same,GI50,[19],170 nM
same,TGI,[19],320 nM
same,GI50,[20],250 nM
same,TGI,[20],1080 nM
same,GI50,[21],87.6 nM
same,TGI,[21],330 nM
same,GI50,[22],133 nM
same,TGI,[22],510 nM
same,GI50,[23],248 nM
same,TGI,[23],811 nM
same,GI50,[24],201 nM
same,TGI,[24],401 nM
same,GI50,[25],130 nM
same,TGI,[25],457 nM
same,GI50,[26],42.2 nM
same,TGI,[26],143 nM
same,GI50,[27],376 nM
same,TGI,[27],1600 nM
same,GI50,[28],267 nM
same,TGI,[28],1370 nM
same,GI50,[29],180 nM
same,TGI,[29],713 nM
same,GI50,[30],135 nM
same,TGI,[30],1040 nM
same,GI50,[31],71.3 nM
same,TGI,[31],571 nM
same,GI50,[32],387 nM
same,TGI,[32],1840 nM
same,GI50,[33],176 nM
same,TGI,[33],626 nM
same,GI50,[34],213 nM
same,TGI,[34],495 nM
same,GI50,[35],57.7 nM
same,TGI,[35],212 nM
same,GI50,[36],46.9 nM
same,TGI,[36],1130 nM
same,GI50,[37],165 nM
same,TGI,[37],439 nM
same,GI50,[38],11.9 nM
same,TGI,[38],26.2 nM
same,GI50,[39],291 nM
same,TGI,[39],1130 nM
same,GI50,[40],197 nM
same,TGI,[40],604 nM
same,GI50,[41],161 nM
same,TGI,[41],335 nM
same,GI50,[42],285 nM
same,TGI,[42],2100 nM
same,GI50,[43],171 nM
same,TGI,[43],561 nM
same,GI50,[44],132 nM
same,TGI,[44],278 nM
same,GI50,[45],175 nM
same,TGI,[45],745 nM
same,GI50,[46],130 nM
same,TGI,[46],392 nM
same,GI50,[47],322 nM
same,TGI,[47],1120 nM
same,GI50,[48],310 nM
same,TGI,[48],2820 nM
same,GI50,[49],31.7 nM
same,TGI,[49],136 nM
same,GI50,[50],136 nM
same,TGI,[50],300 nM
same,GI50,[51],184 nM
same,TGI,[51],475 nM
same,GI50,[52],155 nM
same,TGI,[52],332 nM
same,GI50,[53],43.2 nM
same,TGI,[53],194 nM
same,GI50,[54],112 nM
same,TGI,[54],256 nM

# Source: PubChem BioAssay (NCI)
